How the values were obtained:
[1] = Measurement of Liposomal pKa of LNP (TNS fluorescence); assay type: physicochemical; conditions: LNP without nucleic acid, cationic lipid:DOPC:Chol=52.5:7.5:40 + about 1.5 mol DMG-PEG2k; pH at which relative TNS fluorescence intensity was 50%
Method: Lipid nanoparticles (LNP) without containing nucleic acid were used for the evaluation of Liposomal pKa.
(§1) A 10 mM ethanol solution of cationic lipid, a 5 mM ethanol solution of DOPC, and a 10 mM ethanol solution of Chol were mixed at desired ratio (cationic lipid:DOPC:Chol=52.5:7.5:40 (molar ratio)) in an Eppendorf tube to achieve the total lipid amount of 720 nmol. To the obtained mixture was further added DMG-PEG2k (2 mM ethanol solution) in an amount of about 1.5 mol with respect to the total amount 100 mol of cationic lipid, DOPC, and Chol, and then ethanol was added to prepare an ethanol solution of the lipid (total amount: 360 μL).
(§2) An acidic malic acid buffer (20 mM, pH 3.0) (1080 μL) containing NaCl at a final concentration of 30 mM and an ethanol solution (360 μL) of lipid were each weighed in a syringe. Using an ultra high-speed nanomedicament producing apparatus NanoAssmblr (manufactured by Precision NanoSystems), LNP was prepared under the conditions of addition rate of acidic buffer solution: 3 mL/min, addition rate of ethanol solution of lipid: 1 mL/min, and syringe holder temperature: 25° C., and collected in a 15 mL tube. MES buffer (pH 6.5) (3000 μL) was added to the 15 mL tube, the obtained mixture was transferred to Amicon Ultra 4, and ultrafiltration was performed under centrifugation conditions (25° C., 1000 g, 6 min) to concentrate the mixture to about 100 μL. The obtained concentrate was diluted with PBS to 4 mL, and the mixture was concentrated again under centrifugation conditions (25° C., 1000 g, 6 min), and this operation was performed twice. The obtained concentrate was diluted with PBS to a lipid concentration of 0.5 mM to give a dispersion containing LNP.
20 mM Citrate buffer, sodium phosphate buffer, and tris HCl buffer, each containing NaCl at a final concentration of 150 mM and adjusted to various pHs within the range of pH 3.0 to 10.0, were prepared. TNS (manufactured by Sigma) was diluted with ultrapure water to 0.6 mM. TNS solution (2 μL), dispersions (12 μL) containing LNP prepared in [Experimental Example 1], 1., and buffers adjusted to various pHs (186 μL) were added to a black 96 well plate. The plate was protected from light and shaken at 400 rpm for 10 min. The fluorescence intensity (excitation: 321 nm/emission: 447 nm) was measured using a plate reader (manufactured by TECAN). The relative fluorescence intensity was calculated as a percentage, with the maximum value of the fluorescence intensity in each LNP being 100% and the minimum value being 0%. Furthermore, the pH at which the relative fluorescence intensity was 50% was taken as Liposomal pKa. In Comparative Example, the cationic lipid described in the aforementioned Table 3 were used.

[2] = Particle size, PdI and zeta potential of mRNA-encapsulating LNPs (dynamic light scattering); assay type: physicochemical; conditions: mRNA-encapsulating LNP, cationic lipid:DOPC:Chol=55:5:40 + about 1 mol DMG-PEG2k; for PdI / particle size: dynamic light scattering; for zeta potential: physiological pH
Method: as §1, with “lipid:DOPC:Chol=55:5:40” for “lipid:DOPC:Chol=52.5:7.5:40”, “1” for “1.5”
An acidic buffer solution (total amount: 1080 μL) of nucleic acid was prepared by weighing 7.2 μg of mRNA solution (0.6 mg/mL) in a 5 mL tube and adding acidic malate buffer (20 mM, pH 3.0) containing NaCl at a final concentration of 30 mM.
as §2, with “buffer solution of nucleic” for “malic”, “acid” for “acid buffer (20 mM, pH 3.0) (1080 μL) containing NaCl at a final concentration of 30 mM”, “solution” for “solution (360 μL)”, “solution of nucleic acid:” for “solution:”, “2” for “0.5”
The particle size, PdI (Polydispersity Index), and zeta potential of the mRNA-encapsulating LNP prepared by the method of the above-mentioned 1 were measured by a dynamic light scattering method. In Comparative Example, the cationic lipid described in the aforementioned Table 3 were used.

HeLa cells = test: Evaluation of in vitro gene expression in HeLa cell (luciferase mRNA-encapsulating LNP); assay type: cell-based, human; conditions: for cumulative luciferase luminescence intensity over 24 hr: luciferase mRNA 0.4 μg per dish, LNP cationic lipid:DOPC:Chol:DMG-PEG2k=55:5:40:1; for gene expression activity compared to Comparative Example: result in words
Method: (§3) LNP encapsulating mRNA that expresses luciferase (cationic lipid:DOPC:Chol:DMG-PEG2k=55:5:40:1 (molar ratio)) was prepared by the method described in [Experimental Example 2], 1.
HeLa cells, which are human cervical cancer cells, were seeded in a 3.5 cm dish at 5.0×10^4 cells/2 mL/Dish 24 hours before transfection. After 24 hours, the medium was exchanged with a culture medium (D-MEM) containing 0.1 mM D-luciferin. Prepared mRNA-encapsulating LNP was diluted with PBS such that the concentration of mRNA was about 8 μg/mL. The diluted mRNA-encapsulating LNP solution (about 50 μL, mRNA: 0.4 μg) was added to the 3.5 cm dish and set in an incubator luminometer KronosDio. The luminescence intensity of luciferase was measured for 2 min every one hour. The cumulative luciferase luminescence intensity for 24 hr was calculated from the obtained time change of expression. For example, “1.0E+06” means “1.0×10^6”. In Comparative Example, the cationic lipid described in the aforementioned Table 3 were used.

BALB/c mouse = test: Evaluation of in vivo gene expression (luciferase mRNA-encapsulating LNP, IVIS of isolated organs)
Method: as §3
The prepared each mRNA-encapsulating LNP dispersion was administered from the tail vein of BALB/c mouse (male, 5-week-old). The dose of mRNA was set to 0.05 mg per 1 kg body weight of the mouse, and the dose of the mRNA-encapsulating LNP dispersion was set to 10 μL per 1 g body weight of the mouse. After 4.5 hr from the administration of the mRNA-encapsulating LNP dispersion, a PBS solution of D-luciferin potassium was administered into the abdominal cavity of the mouse. The dose of D-luciferin potassium was set to 3 mg per mouse, and the dose of the PBS solution of D-luciferin potassium was set to 200 μL per mouse. After 15 min from the administration of the PBS solution of D-luciferin potassium, the mouse was euthanized, and the liver, spleen, kidney, heart, and lung were isolated. The luminescence in each organ was quantified using an in vivo imaging system (IVIS) with an exposure of 10 sec. The amount of luminescence in each organ was quantified by image analysis using Live Imaging software attached to IVIS. The amount of luminescence (photons/sec) was calculated from the acquired image and used as an index of gene expression activity. “E+0a” (a: integer) indicated in Table 7 and Table 8 means “10^a”. For example, “1.0E+02” means “1.0×10^2”. In Comparative Example, the cationic lipid described in the aforementioned Table 3 were used.

pKa [1] | PdI [2] | particle size [2] | zeta potential [2] | SMILES | cumulative luciferase luminescence intensity over 24 hr (HeLa cells) | gene expression activity compared to Comparative Example (HeLa cells) | relative value based on Comparative Example (amount of luminescence in spleen) (BALB/c mouse; spleen, relative to O-Ph-P4C2 LNP = 1.00) | amount of luminescence in each organ: heart (BALB/c mouse; tail vein, mRNA 0.05 mg/kg, 4.5 hr + 15 min after administration, heart) | amount of luminescence in each organ: kidney (BALB/c mouse; tail vein, mRNA 0.05 mg/kg, 4.5 hr + 15 min after administration, kidney) | amount of luminescence in each organ: liver (BALB/c mouse; tail vein, mRNA 0.05 mg/kg, 4.5 hr + 15 min after administration, liver) | amount of luminescence in each organ: lung (BALB/c mouse; tail vein, mRNA 0.05 mg/kg, 4.5 hr + 15 min after administration, lung) | amount of luminescence in each organ: spleen (BALB/c mouse; tail vein, mRNA 0.05 mg/kg, 4.5 hr + 15 min after administration, spleen (Table 7))
8.2 | 0.109 | 96 nm | 12.2 mV | CCCCCCCCCCCCCCCCC(CCCCCCCCCCCCCCCC)C(=O)Oc1ccc(CC(=O)OCCSSCCOC(=O)N(C)CCCN(C)C)cc1 [Example 24] | 6.22E+07 RLU | superior gene expression activity | 0.05 | 4.78E+05 photons/sec | 4.84E+05 photons/sec | 5.08E+05 photons/sec | 5.58E+05 photons/sec | 5.09E+05 photons/sec
7.8 | 0.168 | 96 nm | 12.1 mV | CCCCCCCCCCCCCCCCCCC(CCCCCCCCCCCCCCCCCC)C(=O)Oc1ccc(CC(=O)OCCSSCCOC(=O)CCCN(C)C)cc1 [Example 9] | 1.25E+08 RLU | superior gene expression activity | – | – | – | – | – | –
7.8 | 0.101 | 72 nm | 5.3 mV | CCCCCCCCCCCCCCCCC(CCCCCCCCCCCCCCCC)C(=O)Oc1ccc(CC(=O)OCCSSCCOC(=O)CCCN(C)C)cc1 [Example 8] | 2.83E+08 RLU | superior gene expression activity | – | – | – | – | – | –
7.4 | 0.077 | 80 nm | 4.9 mV | CCCCCCCCCCCCCCCCC(CCCCCCCCCCCCCCCC)C(=O)Oc1ccc(CC(=O)OCCSSCCOC(=O)CCCN(CC)CC)cc1 [Example 10] | 1.90E+08 RLU | superior gene expression activity | – | – | – | – | – | –
7.8 | 0.081 | 74 nm | −2.9 mV | CCCCCCCCCCC(CCCCCCCCCC)C(=O)Oc1ccc(CC(=O)OCCSSCCOC(=O)CCCN(C)C)cc1 [Example 5] | 2.15E+08 RLU | superior gene expression activity | – | – | – | – | – | –
7.8 | 0.116 | 64 nm | 12.2 mV | CCCCCCCCC(CCCCCC)C(=O)Oc1ccc(CC(=O)OCCSSCCOC(=O)CCCN(C)C)cc1 (stereo not drawn) [Example 4] | 3.09E+05 RLU | – | – | – | – | – | – | –

Second part, the compound before the results:

SMILES | pKa [1] | PdI [2] | particle size [2] | zeta potential [2] | cumulative luciferase luminescence intensity over 24 hr (HeLa cells) | gene expression activity compared to Comparative Example (HeLa cells) | relative value based on Comparative Example (amount of luminescence in spleen) (BALB/c mouse; spleen, relative to O-Ph-P4C2 LNP = 1.00) | amount of luminescence in each organ: heart (BALB/c mouse; tail vein, mRNA 0.05 mg/kg, 4.5 hr + 15 min after administration, heart) | amount of luminescence in each organ: kidney (BALB/c mouse; tail vein, mRNA 0.05 mg/kg, 4.5 hr + 15 min after administration, kidney) | amount of luminescence in each organ: liver (BALB/c mouse; tail vein, mRNA 0.05 mg/kg, 4.5 hr + 15 min after administration, liver) | amount of luminescence in each organ: lung (BALB/c mouse; tail vein, mRNA 0.05 mg/kg, 4.5 hr + 15 min after administration, lung) | amount of luminescence in each organ: spleen (BALB/c mouse; tail vein, mRNA 0.05 mg/kg, 4.5 hr + 15 min after administration, spleen (Table 7))
CCCCCCCCCCCCCCCCC(CCCCCCCCCCCCCCCC)C(=O)Oc1ccc(CC(=O)NCCSSCCNC(=O)CN(C)C)cc1 [Example 18] | 6.8 | 0.132 | 105 nm | 5.3 mV | 3.99E+06 RLU | – | – | – | – | – | – | –
CCCCCCCCCCCCCCCCC(CCCCCCCCCCCCCCCC)C(=O)Oc1ccc(CC(=O)OCCSSCCN(CC)CC)cc1 [Example 17] | 6.2 | 0.064 | 105 nm | −2.6 mV | 8.39E+04 RLU | – | – | – | – | – | – | –
CCCCCCCCCCCCCCCCC(CCCCCCCCCCCCCCCC)C(=O)Oc1ccc(CC(=O)OCCSSCCOC(=O)CCCN2CCCCC2)cc1 [Example 11] | 7 | 0.079 | 86 nm | −0.9 mV | 6.71E+07 RLU | superior gene expression activity | – | – | – | – | – | –
CCCCCCCC/C=C\CCCCCCCC(=O)Oc1ccc(CC(=O)OCCSSCCOC(=O)CCCN(C)C)cc1OC(=O)CCCCCCC/C=C\CCCCCCCC [Example 15] | 6.3 | 0.112 | 65 nm | 6.0 mV | 8.22E+07 RLU | superior gene expression activity | – | – | – | – | – | –
CCCCCCCCCCCCCCCCC(CCCCCCCCCCCCCCCC)C(=O)Oc1ccc(CC(=O)NCCSSCCNC(=O)CCN(C)C)cc1 [Example 19] | 8.2 | 0.121 | 73 nm | 13.1 mV | 2.55E+07 RLU | superior gene expression activity | – | – | – | – | – | –
